# Laboratory results reported in paper PMC12406198, “Decadentate Acyclic Chelators for Lanthanum Radiopharmaceuticals” (Journal of Medicinal Chemistry, 2025).
# Read-outs that look alike come from different tables or passages of the source.
# How the values were obtained:
# [1] = literature value, cited from earlier work
# [2] = Ligand protonation constants by pH-potentiometric titration; format: physicochemical; settings: sum of literature protonation constants of related ligands
# [3] = 0.15 M NaCl; ref footnote b; cited from earlier work
# [4] = Stability constants of La^3+ complexes by pH potentiometry; format: physicochemical; settings: −log[La^3+]free for [L] = 10 μM and [La^3+] = 1 μM at pH 7.4 and 25 °C; from literature constants
# Description: The stability constants of the La^3+ complexes were determined using pH potentiometry (I = 0.15 NaCl). A significant amount of the metal ion is not complexed by the TPADAC^4– ligand at the beginning of the titration at pH 1.7 (∼20%), which allows for stability constant determination using potentiometry. In the case of TPAEN^4– the amount of free La^3+ was small (∼4%), but the stability constants could be determined by fitting the titration data using both 1:1 and 1:2 (TPAEN^4–:La^3+) stoichiometries (Figure S1, Supporting Information). The TPADAC^4– ligand also forms complexes with 1:1 and 1:2 stoichiometries (Figure S2, Supporting Information).
# The thermodynamic stability of the complexes at physiologically relevant pH was assessed by calculating pLa values, defined as −log[La^3+]free for [L] = 10 μM and [La^3+] = 1 μM at pH 7.4 and 25 °C following the recommendation of Raymond. This is a result of the high stability constants (log K LaL) that characterize the formation of these complexes, as well as the relatively low basicity of these ligands. Indeed, cyclohexyl derivatives TPADAC^4– and CHXOCTAPA^4– display considerably higher basicity than the ethyl analogues, as indicated by the Σ log K i ^H (i = 1–5) values shown in Table . Similarly, DTPA and DO3A derivatives are characterized by rather high basicities, which results in relatively low pLa values.
# The pH-potentiometric titrations were carried out with a Methrohm 785 DMP titrator using a Metrohm-6.0233.100 combined electrode. The titrated solutions (5.000 mL) were thermostated at 25 °C and stirred and kept under inert gas atmosphere (N2) to avoid the effect of CO2. The pH-calibration of the electrode was performed using KH-phthalate (pH = 4.005) and borax (pH = 9.177) buffers. The concentrations of the ligand stock solutions were determined by pH-potentiometric titration. The protonation constants of the TPAEN^4– (in the pH range of 2.19–12.00 a total of 213 data pairs by titrating a 2.72 mM a ligand solution) and TPADAC^4– (in the pH range of 1.88–11.85 a total of 208 data pairs by titrating a 2.32 mM ligand solution), the stability and protonation constants of the complexes formed with La^3+ and the formation constants of their dinuclear complexes were determined by pH-potentiometric titration. The metal-to-ligand concentration ratios were 1:1 and 2:1. For the 1:1 ratio a total of 240 data pairs were recorded for a H4TPAEN concentration of 2.29 mM in the pH range of 1.77–11.86, while a total of 222 data pairs were collected in the pH range 1.72–11.85 for a 2.72 mM solution of H4TPADAC. For the 2:1 ratio we collected 259 data pairs for a 2.31 mM solution of H4TPAEN in the pH range of 1.73–11.82, and 259 data pairs for a 2.71 mM concentration of H4TPADAC in the pH range of 1.70–11.85. The calculation of [H^+] from the measured pH values was performed with the use of the method proposed by Irving et al. by titrating a 0.01 M HCl solution (I = 0.15 M NaCl) with a standardized NaOH solution. The differences between the measured and calculated pH values were used to obtain the [H^+] concentrations from the pH-data obtained in the titrations. The ionic product of water was determined from the same experiment in the pH range 11.25–11.85. The protonation and stability constants were calculated from the titration data with the PSEQUAD program. The quality of the fits was assessed with the fitting parameter (FP) calculated by PSEQUAD, which is defined as 2 FP=∑i=1n(Vi,calc−Vi,meas)^2/n−k
smiles,measurement,setting,value
"O=C(O)CN(Cc1cccc(C(=O)O)n1)[C@@H]1CCCC[C@@H]1N(CC(=O)O)Cc1cccc(C(=O)O)n1 [CHXOCTAPA^4–, 6,6′-((((1R,2S)-cyclohexane-1,2-diyl)bis((carboxymethyl)azanediyl))bis(methylene))dipicolinic acid]",log K 1 ^H,[1]; ref footnote c,9.52
same,log K 2 ^H,[1]; ref footnote c,5.51
same,log K 3 ^H,[1]; ref footnote c,3.99
same,log K 4 ^H,[1]; ref footnote c,3.43
same,log K 5 ^H,[1]; ref footnote c,1.59
same,log K 6 ^H,[1]; ref footnote c,0.61
same,log K 1 ^H,[1]; ref footnote d,9.23
same,log K 2 ^H,[1]; ref footnote d,5.40
same,log K 3 ^H,[1]; ref footnote d,3.94
same,log K 4 ^H,[1]; ref footnote d,2.24
same,log K 5 ^H,[1]; ref footnote d,1.82
same,log K 6 ^H,[1]; ref footnote d,1.91
same,Σ log K i ^H (i = 1–5),[2],24.04
same,log K LaL,[3],17.82
same,log K LaL ^H,[3],2.00
same,log K LaL ^OH,[3],12.75
same,pLa,[4],16.6
